According to patent publication US9242984B2, “Pyrazolyl derivatives as Syk inhibitors” (Merck Sharp & Dohme Corp., priority 2012, dated 2016):

target: T1, recombinant human Syk (GST-hSyk fusion protein) (Homo sapiens, UniProt P43405); experiment: Homogeneous Time-Resolved Fluorescence (HTRF) assay for the recombinant human Syk enzyme; format: biochemical; details: 10-dose titration, 25 μM ATP; read-out: rhSYK IC50
T1 construct: purchased Carna Biosciences 08-176
How it was run: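 IC50 came from a four-parameter fit over ten doses, 10 μM to 0.508 nM, with HTRF read-out (Eu-anti-pTyr antibody, SA-APC, EDTA stop, 30 min). The enzyme, 5 pM GST-hSyk, met compound for 10 min, then phosphorylated 250 nM biotin-peptide with 25 μM ATP and 5 mM Mg for 45 min at room temperature, pH 7.5.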

| SMILES | IC50 |
| --- | --- |
| Cc1cc(Nc2nccc(C(F)F)n2)cc(-c2cnn(CC(O)(CO)C(F)(F)F)c2)c1 (single isomer, unassigned) [Example 32.2, (S or R)-2-((4-(3-((4-(difluoromethyl)pyrimidin-2-yl)amino)-5-methylphenyl)-1H-pyrazol-1-yl)methyl)-3,3,3-trifluoropropane-1,2-diol] | 3.3 nM |
| Cc1cc(Nc2nccc(C)n2)cc(-c2cnn(C3CCCC(O)C3O)c2)c1 (stereo not drawn) [Example 10.10, 3-(4-{3-methyl-5-[(4-methylpyrimidin-2-yl)amino]phenyl}-1H-pyrazol-1-yl)cyclohexane-1,2-diol] | 29.4 nM |

same assay, conditions: IC50 class; 10-dose titration, 25 μM ATP; read-out: rhSYK Activity

| SMILES | IC50 |
| --- | --- |
| Cc1cc(Nc2nccc(C(F)(F)F)n2)cc(-c2cnn(CCNC(N)=O)c2)c1 [Example 3.16, 1-{2-[4-(3-methyl-5-{[4-(trifluoromethyl)-pyrimidin-2-yl]-amino}phenyl)-1H-pyrazol-1-yl]ethyl}urea] | ≤ 100 nM |
| Cc1cc(Nc2nccc(C(F)F)n2)cc(-c2cnn(Cc3[nH]cnc3C)c2)c1 [Example 3.109, 4-(difluoromethyl)-N-(3-methyl-5-{1-[(4-methyl-1H-imidazol-5-yl)methyl]-1H-pyrazol-4-yl}phenyl)pyrimidin-2-amine] | ≤ 100 nM |
| Cc1cc(Nc2nccc(C(F)(F)F)n2)cc(-c2cnn(CC3(O)CCC3)c2)c1 [Example 12.2, 1-{[4-(3-methyl-5-{[4-(trifluoro-methyl)pyrimidin-2-yl]amino}-phenyl)-1H-pyrazol-1-yl]-methyl}-cyclobutanol] | ≤ 100 nM |
| COCC(O)Cn1cc(-c2cc(C)cc(Nc3nccc(C(F)F)n3)c2)cn1 (stereo not drawn) [Example 5.22, 1-[4-(3-{[4-(difluoromethyl)pyrimidin-2-yl]amino}-5-methylphenyl)-1H-pyrazol-1-yl]-3-methoxypropan-2-ol] | ≤ 100 nM |
| Cc1cc(Nc2nccc(C3CC3)n2)cc(-c2cnn(C[C@H](O)C(N)=O)c2)c1 [Example 6.5, (2S)-3-(4-{3-[(4-cyclopropyl-pyrimidin-2-yl)amino]-5-methylphenyl}-1H-pyrazol-1-yl)-2-hydroxypropan-amide] | ≤ 100 nM |
| Cc1cc(Nc2nccc(C(F)F)n2)cc(-c2cnn(CC(O)(CO)C(F)(F)F)c2)c1 (single isomer, unassigned) [Example 32.2, (S or R)-2-((4-(3-((4-(difluoromethyl)pyrimidin-2-yl)amino)-5-methylphenyl)-1H-pyrazol-1-yl)methyl)-3,3,3-trifluoropropane-1,2-diol] | ≤ 100 nM |
| CCC(C(=O)O)n1cc(-c2cc(C)cc(Nc3nccc(C(F)(F)F)n3)c2)cn1 (stereo not drawn) [Example 3.34, 2-[4-(3-methyl-5-{[4-(trifluoromethyl)pyrimidin-2-yl]amino}-phenyl)-1H-pyrazol-1-yl]butanoic acid] | ≤ 100 nM |
| COCC(C)(C)NC(=O)Cn1cc(-c2cc(C)cc(Nc3nccc(C(F)(F)F)n3)c2)cn1 [Example 3.12, N-(2-methoxy-1,1-dimethylethyl)-2-[4-(3-methyl-5-{[4-(trifluoromethyl)pyrimidin-2-yl]amino}phenyl)-1H-pyrazol-1-yl]acetamide] | 100 to 1000 nM |
| Cc1cc(Nc2nccc(C(F)(F)F)n2)cc(-c2cnn(C(C)c3ccc(C(=O)O)cc3)c2)c1 (stereo not drawn) [Example 1.48, 4-{1-[4-(3-methyl-5-{[4-(trifluoromethyl)pyrimidin-2-yl]amino}phenyl)-1H-pyrazol-1-yl]ethyl}benzoic acid] | ≤ 100 nM |
| Cc1cc(Nc2nccc(C(F)F)n2)cc(-c2cnn(CC3(C)CNC(=O)O3)c2)c1 (stereo not drawn) [Example 3.124, 5-{[4-(3-{[4-(difluoromethyl)pyrimidin-2-yl]amino}-5-methylphenyl)-1H-pyrazol-1-yl]methyl}-5-methyl-1,3-oxazolidin-2-one] | ≤ 100 nM |
| Cc1cc(Nc2nccc(C(F)(F)F)n2)cc(-c2cnn(C3CCC(C(N)=O)C(C)(C)C3)c2)c1 (stereo not drawn) [Example 8.7, 2,2-dimethyl-4-[4-(3-methyl-5-{[4-(trifluoromethyl)-pyrimidin-2-yl]amino}-phenyl)-1H-pyrazol-1-yl]cyclohexane-carboxamide] | ≤ 100 nM |
| Cc1cc(Nc2nccc(C)n2)cc(-c2cnn(C3CCCC(O)C3O)c2)c1 (stereo not drawn) [Example 10.10, 3-(4-{3-methyl-5-[(4-methylpyrimidin-2-yl)amino]phenyl}-1H-pyrazol-1-yl)cyclohexane-1,2-diol] | ≤ 100 nM |
| COCC(=O)NCCn1cc(-c2cc(C)cc(Nc3nccc(C(F)F)n3)c2)cn1 [Example 26.5, N-{2-[4-(3-{[4-(difluoromethyl)pyrimidin-2-yl]amino}-5-methylphenyl)-1H-pyrazol-1-yl]ethyl}-2-methoxyacetamide] | ≤ 100 nM |
